{
  "source": "paper PMC6540285",
  "about": "“Evaluation of Protein Kinase Inhibitors with PLK4 Cross-Over Potential in a Pre-Clinical Model of Cancer” (International Journal of Molecular Sciences, 2019)",
  "key": {"[1]": {"target": "MAP3K2 (MEKK2) (Homo sapiens, UniProt Q9Y2U5)", "assay": "SelectScreen kinase profiling, LanthaScreen binding"}, "[2]": {"target": "CSK (Homo sapiens, UniProt P41240)", "sequence (P41240 whole entry)": "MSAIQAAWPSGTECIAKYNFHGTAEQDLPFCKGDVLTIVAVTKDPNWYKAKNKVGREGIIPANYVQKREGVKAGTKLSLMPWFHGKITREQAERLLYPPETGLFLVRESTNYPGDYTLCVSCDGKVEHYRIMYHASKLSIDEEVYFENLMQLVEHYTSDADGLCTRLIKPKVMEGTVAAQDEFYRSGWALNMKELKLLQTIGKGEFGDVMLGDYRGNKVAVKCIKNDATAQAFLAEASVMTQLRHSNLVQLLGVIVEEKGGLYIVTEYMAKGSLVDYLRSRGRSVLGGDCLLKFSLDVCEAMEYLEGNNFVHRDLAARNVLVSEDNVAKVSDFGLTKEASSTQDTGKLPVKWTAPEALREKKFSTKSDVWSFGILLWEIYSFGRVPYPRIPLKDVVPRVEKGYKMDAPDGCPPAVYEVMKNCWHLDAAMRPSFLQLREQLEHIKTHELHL", "assay": "SelectScreen kinase profiling, ZLYTE", "format": "biochemical"}, "[3]": {"target": "PHKG1 (Homo sapiens, UniProt Q16816)", "assay": "SelectScreen kinase profiling, ZLYTE", "format": "biochemical", "conditions": "PHKG1, 10 µM"}, "[4]": {"target": "PIK3CA/PIK3R1 (p110 alpha/p85 alpha) (Homo sapiens, UniProt P42336)", "sequence (P42336 whole entry)": "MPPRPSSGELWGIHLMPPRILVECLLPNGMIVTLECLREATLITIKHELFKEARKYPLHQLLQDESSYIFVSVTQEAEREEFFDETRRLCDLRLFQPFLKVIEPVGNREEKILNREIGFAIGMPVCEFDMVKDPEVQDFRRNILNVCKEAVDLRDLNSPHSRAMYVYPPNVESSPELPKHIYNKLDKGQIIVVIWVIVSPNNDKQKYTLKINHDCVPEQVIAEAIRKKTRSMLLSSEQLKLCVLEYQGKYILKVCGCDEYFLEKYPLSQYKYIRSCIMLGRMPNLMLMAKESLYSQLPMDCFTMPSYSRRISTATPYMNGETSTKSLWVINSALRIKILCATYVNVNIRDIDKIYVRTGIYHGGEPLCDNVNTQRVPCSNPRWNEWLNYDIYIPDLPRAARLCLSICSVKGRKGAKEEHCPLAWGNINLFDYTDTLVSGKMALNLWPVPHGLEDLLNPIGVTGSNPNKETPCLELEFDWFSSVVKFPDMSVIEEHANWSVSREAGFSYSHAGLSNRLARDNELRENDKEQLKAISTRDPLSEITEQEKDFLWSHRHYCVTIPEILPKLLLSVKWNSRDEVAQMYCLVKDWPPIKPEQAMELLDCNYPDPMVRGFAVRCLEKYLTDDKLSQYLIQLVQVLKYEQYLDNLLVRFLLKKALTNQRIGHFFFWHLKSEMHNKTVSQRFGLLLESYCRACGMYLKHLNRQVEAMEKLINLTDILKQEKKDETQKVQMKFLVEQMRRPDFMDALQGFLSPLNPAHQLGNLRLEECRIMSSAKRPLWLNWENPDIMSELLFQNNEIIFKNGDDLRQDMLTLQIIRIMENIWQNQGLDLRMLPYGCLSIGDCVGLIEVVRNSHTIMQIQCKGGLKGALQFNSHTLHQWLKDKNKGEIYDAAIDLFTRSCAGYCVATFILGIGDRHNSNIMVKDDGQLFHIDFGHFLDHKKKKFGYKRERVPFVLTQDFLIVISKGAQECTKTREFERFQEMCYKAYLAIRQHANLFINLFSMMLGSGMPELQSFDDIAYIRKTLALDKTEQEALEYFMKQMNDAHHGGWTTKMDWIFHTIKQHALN", "sequence (P27986 whole entry partner)": "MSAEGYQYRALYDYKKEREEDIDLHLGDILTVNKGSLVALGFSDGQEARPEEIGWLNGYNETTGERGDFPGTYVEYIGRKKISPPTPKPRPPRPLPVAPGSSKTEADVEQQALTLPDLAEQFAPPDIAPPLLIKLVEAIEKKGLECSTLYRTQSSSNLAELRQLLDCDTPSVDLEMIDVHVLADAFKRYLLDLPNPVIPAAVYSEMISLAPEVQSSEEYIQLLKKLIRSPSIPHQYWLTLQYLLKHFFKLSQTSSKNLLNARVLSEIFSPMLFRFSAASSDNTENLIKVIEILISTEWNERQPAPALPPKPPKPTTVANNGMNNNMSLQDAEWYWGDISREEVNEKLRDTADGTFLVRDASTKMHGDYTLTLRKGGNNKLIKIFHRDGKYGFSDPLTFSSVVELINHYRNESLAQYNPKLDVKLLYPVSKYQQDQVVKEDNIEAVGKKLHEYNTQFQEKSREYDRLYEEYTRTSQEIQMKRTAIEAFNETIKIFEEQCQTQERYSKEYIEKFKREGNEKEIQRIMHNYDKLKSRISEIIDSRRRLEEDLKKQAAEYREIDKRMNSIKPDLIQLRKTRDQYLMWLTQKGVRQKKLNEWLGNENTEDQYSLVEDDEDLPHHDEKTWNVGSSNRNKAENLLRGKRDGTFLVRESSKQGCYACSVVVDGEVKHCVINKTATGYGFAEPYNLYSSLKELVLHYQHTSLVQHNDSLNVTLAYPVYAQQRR", "assay": "SelectScreen kinase profiling, Adapta", "format": "biochemical", "conditions": "PIK3CA/PIK3R1, 10 µM"}, "[5]": {"target": "AKT1 (PKB alpha) (Homo sapiens, UniProt P31749)", "assay": "SelectScreen kinase profiling, ZLYTE", "format": "biochemical"}, "[6]": {"target": "PRKCD (PKC delta) (Homo sapiens, UniProt Q05655)", "assay": "SelectScreen kinase profiling, ZLYTE", "format": "biochemical"}, "[7]": {"target": "MAP3K9 (MLK1) (Homo sapiens, UniProt P80192)", "assay": "SelectScreen kinase profiling, ZLYTE", "format": "biochemical"}, "[8]": {"target": "P450 2B6 (Homo sapiens, UniProt P20813)", "assay": "SelectScreen P450 Vivid biochemical assay", "conditions": "10000nM; substrate BOMCC"}, "[9]": {"target": "RPS6KB2 (p70S6Kb) (Homo sapiens, UniProt Q9UBS0)", "assay": "SelectScreen kinase profiling, ZLYTE", "format": "biochemical"}, "[10]": {"target": "MLK4 (Homo sapiens, UniProt Q5TCX8)", "assay": "SelectScreen kinase profiling, LanthaScreen binding", "conditions": "MLK4, 10 µM"}, "[11]": {"target": "ICK (Homo sapiens, UniProt Q9UPZ9)", "sequence (Q9UPZ9 whole entry)": "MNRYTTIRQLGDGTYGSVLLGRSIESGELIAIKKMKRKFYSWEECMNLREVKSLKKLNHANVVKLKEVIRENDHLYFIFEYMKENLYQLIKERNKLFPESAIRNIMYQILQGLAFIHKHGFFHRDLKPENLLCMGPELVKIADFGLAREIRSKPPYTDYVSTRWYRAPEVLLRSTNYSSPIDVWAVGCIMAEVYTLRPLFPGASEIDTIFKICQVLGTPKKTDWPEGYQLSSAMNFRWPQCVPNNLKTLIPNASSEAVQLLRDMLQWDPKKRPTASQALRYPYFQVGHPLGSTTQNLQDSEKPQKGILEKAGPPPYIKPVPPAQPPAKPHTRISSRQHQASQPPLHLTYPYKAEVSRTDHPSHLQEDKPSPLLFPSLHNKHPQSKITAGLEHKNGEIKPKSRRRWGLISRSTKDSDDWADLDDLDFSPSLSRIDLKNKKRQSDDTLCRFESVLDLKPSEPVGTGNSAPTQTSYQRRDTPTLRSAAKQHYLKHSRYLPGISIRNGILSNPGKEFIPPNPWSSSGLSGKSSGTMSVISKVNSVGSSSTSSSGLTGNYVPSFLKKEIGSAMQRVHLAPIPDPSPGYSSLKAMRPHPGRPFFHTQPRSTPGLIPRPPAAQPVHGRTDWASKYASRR", "assay": "SelectScreen kinase profiling, LanthaScreen binding"}, "[12]": {"target": "P450 3A5 (Homo sapiens, UniProt P20815)", "sequence (P20815 whole entry)": "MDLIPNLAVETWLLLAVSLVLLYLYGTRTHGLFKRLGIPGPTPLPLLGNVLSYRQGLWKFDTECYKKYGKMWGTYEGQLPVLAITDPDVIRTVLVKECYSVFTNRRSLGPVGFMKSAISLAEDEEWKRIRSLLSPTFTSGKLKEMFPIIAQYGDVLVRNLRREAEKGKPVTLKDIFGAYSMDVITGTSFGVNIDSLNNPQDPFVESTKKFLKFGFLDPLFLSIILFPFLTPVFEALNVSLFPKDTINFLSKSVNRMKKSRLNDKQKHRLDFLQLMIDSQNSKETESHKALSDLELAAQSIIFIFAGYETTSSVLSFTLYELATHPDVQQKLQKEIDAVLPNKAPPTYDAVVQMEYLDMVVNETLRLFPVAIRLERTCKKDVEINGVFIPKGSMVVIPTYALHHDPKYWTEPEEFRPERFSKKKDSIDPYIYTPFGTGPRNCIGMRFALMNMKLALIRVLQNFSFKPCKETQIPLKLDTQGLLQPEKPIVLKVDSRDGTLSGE", "assay": "SelectScreen P450 Vivid biochemical assay", "conditions": "10000nM"}, "[13]": {"target": "ALK C1156Y (Homo sapiens, UniProt Q9UM73, C1156Y)", "assay": "SelectScreen kinase profiling, LanthaScreen binding"}, "[14]": {"target": "MAP4K4 (HGK) (Homo sapiens, UniProt O95819)", "assay": "SelectScreen kinase profiling, ZLYTE", "format": "biochemical"}, "[15]": {"target": "MKNK1 (MNK1) (Homo sapiens, UniProt Q9BUB5)", "assay": "SelectScreen kinase profiling, ZLYTE", "format": "biochemical"}, "[16]": {"target": "LRRK2 (Homo sapiens, UniProt Q5S007)", "assay": "SelectScreen kinase profiling, Adapta", "format": "biochemical", "conditions": "LRRK2, 10 µM"}, "[17]": {"target": "MASTL (Homo sapiens, UniProt Q96GX5)", "sequence (Q96GX5 whole entry)": "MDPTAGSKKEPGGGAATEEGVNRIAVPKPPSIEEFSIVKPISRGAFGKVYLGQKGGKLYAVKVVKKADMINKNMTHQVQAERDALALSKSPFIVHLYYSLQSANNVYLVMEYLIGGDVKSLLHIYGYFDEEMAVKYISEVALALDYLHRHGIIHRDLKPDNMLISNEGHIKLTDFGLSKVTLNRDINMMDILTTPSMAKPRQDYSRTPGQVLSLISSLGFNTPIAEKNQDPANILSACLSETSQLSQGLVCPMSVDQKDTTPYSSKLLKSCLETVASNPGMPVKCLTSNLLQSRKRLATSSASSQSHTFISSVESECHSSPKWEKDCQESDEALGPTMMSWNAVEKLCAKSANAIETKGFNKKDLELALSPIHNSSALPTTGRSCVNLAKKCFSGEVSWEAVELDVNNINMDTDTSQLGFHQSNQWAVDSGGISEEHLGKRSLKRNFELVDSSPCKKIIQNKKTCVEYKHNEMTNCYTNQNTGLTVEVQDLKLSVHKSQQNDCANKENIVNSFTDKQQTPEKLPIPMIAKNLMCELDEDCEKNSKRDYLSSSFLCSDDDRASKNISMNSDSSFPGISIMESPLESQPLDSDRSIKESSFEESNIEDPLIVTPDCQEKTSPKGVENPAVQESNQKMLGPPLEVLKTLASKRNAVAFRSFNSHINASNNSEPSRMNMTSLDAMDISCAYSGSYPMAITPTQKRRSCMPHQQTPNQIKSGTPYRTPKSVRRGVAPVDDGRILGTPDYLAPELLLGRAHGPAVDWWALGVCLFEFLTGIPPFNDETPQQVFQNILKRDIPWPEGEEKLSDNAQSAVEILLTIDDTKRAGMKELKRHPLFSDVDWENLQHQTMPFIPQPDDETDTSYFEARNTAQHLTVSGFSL", "assay": "SelectScreen kinase profiling, LanthaScreen binding"}, "[18]": {"target": "CSNK1A1L (Homo sapiens, UniProt Q8N752)", "assay": "SelectScreen kinase profiling, ZLYTE", "format": "biochemical"}, "[19]": {"target": "LYN A (Homo sapiens, UniProt P07948)", "assay": "SelectScreen kinase profiling, ZLYTE", "format": "biochemical"}, "[20]": {"target": "SPHK1 (Homo sapiens, UniProt Q9NYA1)", "assay": "SelectScreen kinase profiling, Adapta", "format": "biochemical", "conditions": "SPHK1, 10 µM"}, "[21]": {"target": "NIM1K (Homo sapiens, UniProt Q8IY84)", "assay": "SelectScreen kinase profiling, ZLYTE", "format": "biochemical"}, "[22]": {"target": "CDK5/p35 (Homo sapiens, UniProt Q00535)", "sequence (Q00535 whole entry)": "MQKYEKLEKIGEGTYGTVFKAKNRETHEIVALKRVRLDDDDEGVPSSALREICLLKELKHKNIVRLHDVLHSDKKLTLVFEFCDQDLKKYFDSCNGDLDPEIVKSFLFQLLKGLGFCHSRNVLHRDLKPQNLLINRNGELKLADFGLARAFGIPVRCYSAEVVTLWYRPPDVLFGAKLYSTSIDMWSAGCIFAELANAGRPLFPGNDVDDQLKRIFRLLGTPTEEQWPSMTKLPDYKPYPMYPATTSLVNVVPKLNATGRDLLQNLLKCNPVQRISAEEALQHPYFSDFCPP", "sequence (Q15078 whole entry partner)": "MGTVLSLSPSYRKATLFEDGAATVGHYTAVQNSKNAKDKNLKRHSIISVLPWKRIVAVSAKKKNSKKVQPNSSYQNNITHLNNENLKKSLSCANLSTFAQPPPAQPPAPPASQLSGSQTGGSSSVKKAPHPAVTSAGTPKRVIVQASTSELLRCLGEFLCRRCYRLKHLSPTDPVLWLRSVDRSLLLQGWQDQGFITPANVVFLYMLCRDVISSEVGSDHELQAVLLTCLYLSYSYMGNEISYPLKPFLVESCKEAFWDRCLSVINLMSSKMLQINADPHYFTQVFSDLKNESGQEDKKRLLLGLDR", "assay": "SelectScreen kinase profiling, ZLYTE", "format": "biochemical", "conditions": "CDK5/p35, 10 µM"}, "[23]": {"target": "MYLK2 (skMLCK) (Homo sapiens, UniProt Q9H1R3)", "assay": "SelectScreen kinase profiling, ZLYTE", "format": "biochemical"}, "[24]": {"target": "MAP2K6 (MKK6) S207E T211E (Homo sapiens, UniProt P52564, S207E/T211E)", "assay": "SelectScreen kinase profiling, LanthaScreen binding"}, "[25]": {"target": "PDGFRA D842V (Homo sapiens, UniProt P16234, D842V)", "assay": "SelectScreen kinase profiling, ZLYTE", "format": "biochemical"}, "[26]": {"target": "ACVR2B (Homo sapiens, UniProt Q13705)", "assay": "SelectScreen kinase profiling, LanthaScreen binding"}, "[27]": {"target": "MAPK10 (JNK3) (Homo sapiens, UniProt P53779)", "assay": "SelectScreen kinase profiling, ZLYTE", "format": "biochemical"}, "[28]": {"target": "MAPK3 (ERK1) (Homo sapiens, UniProt P27361)", "assay": "SelectScreen kinase profiling, ZLYTE", "format": "biochemical"}, "[29]": {"target": "ROS1 (Homo sapiens, UniProt P08922)", "assay": "SelectScreen kinase profiling, ZLYTE", "format": "biochemical", "conditions": "ROS1, 10 µM"}, "[30]": {"target": "PDGFRA T674I (Homo sapiens, UniProt P16234, T674I)", "assay": "SelectScreen kinase profiling, ZLYTE", "format": "biochemical", "text": "Kinase Technology % Inhibition Avg Kinase Technology % Inhibition Avg\nSTK23 (MSSK1) ZLYTE 59 TGFBR1 (ALK5) LanthaScreen 85\nSTK24 (MST3) ZLYTE 85 TGFBR2 LanthaScreen 77\nSTK25 (YSK1) ZLYTE 45 TLK1 LanthaScreen 4\nSTK3 (MST2) ZLYTE 77 TLK2 LanthaScreen 33\nSTK32B (YANK2) LanthaScreen 61 TNIK LanthaScreen 15\nSTK32C (YANK3) LanthaScreen 62 TNK1 ZLYTE 94\nSTK33 LanthaScreen 81 TNK2 (ACK) LanthaScreen 71\nSTK38 (NDR) LanthaScreen 85 TTK LanthaScreen 54\nSTK38L (NDR2) LanthaScreen 59 TXK ZLYTE 94\nSTK39 (STLK3) LanthaScreen 38 TYK2 ZLYTE 99\nSTK4 (MST1) ZLYTE 93 TYRO3 (RSE) ZLYTE 92\nSYK ZLYTE 98 ULK1 LanthaScreen 80\nTAOK1 LanthaScreen 82 ULK2 LanthaScreen 56\nTAOK2 (TAO1) ZLYTE 87 ULK3 LanthaScreen 5\nTAOK3 (JIK) LanthaScreen 25 VRK2 LanthaScreen 32\nTBK1 ZLYTE 99 WEE1 LanthaScreen 75\nTEC LanthaScreen -9 WNK1 LanthaScreen 2\nTEK (Tie2) ZLYTE 99 WNK2 LanthaScreen 1\nTEK (TIE2) R849W LanthaScreen -5 WNK3 LanthaScreen 7\nTEK (TIE2) Y897S ZLYTE 80 ZAK LanthaScreen 77\nTESK1 LanthaScreen 37 ZAP70 ZLYTE 24\ncleavage (Thermo Fisher Scientific, USA)"}},
  "data": [
    {"smiles": "O=C(c1ccc(/C=C/c2n[nH]c3ccccc23)cc1)N1CCNCC1", "note": "[KW-2449]", "values": [
      {"measurement": "inhibition at 10 µM", "setting": "[1]", "result": 86, "unit": "%"},
      {"measurement": "inhibition at 10 µM", "setting": "[2]", "result": 71, "unit": "%"},
      {"measurement": "inhibition at 10 µM", "setting": "[3]", "result": 100, "unit": "%"},
      {"measurement": "inhibition at 10 µM", "setting": "[4]", "result": 11, "unit": "%"},
      {"measurement": "inhibition at 10 µM", "setting": "[5]", "result": 24, "unit": "%"},
      {"measurement": "inhibition at 10 µM", "setting": "[6]", "result": 25, "unit": "%"},
      {"measurement": "inhibition at 10 µM", "setting": "[7]", "result": 102, "unit": "%"},
      {"measurement": "% Inhibition 2B6 BOMCC", "setting": "[8]", "result": 48, "unit": "%"},
      {"measurement": "inhibition at 10 µM", "setting": "[9]", "result": 37, "unit": "%"},
      {"measurement": "inhibition at 10 µM", "setting": "[10]", "result": 17, "unit": "%"},
      {"measurement": "inhibition at 10 µM", "setting": "[11]", "result": 74, "unit": "%"},
      {"measurement": "% Inhibition 3A5 BOMCC", "setting": "[12]; substrate BOMCC", "result": 14, "unit": "%"},
      {"measurement": "% Inhibition 3A5 DBOMF", "setting": "[12]; substrate DBOMF", "result": 10, "unit": "%"},
      {"measurement": "inhibition at 10 µM", "setting": "[13]", "result": 76, "unit": "%"},
      {"measurement": "inhibition at 10 µM", "setting": "[14]", "result": 98, "unit": "%"},
      {"measurement": "inhibition at 10 µM", "setting": "[15]", "result": 52, "unit": "%"},
      {"measurement": "inhibition at 10 µM", "setting": "[16]", "result": 100, "unit": "%"},
      {"measurement": "inhibition at 10 µM", "setting": "[17]", "result": 83, "unit": "%"},
      {"measurement": "inhibition at 10 µM", "setting": "[18]", "result": 20, "unit": "%"},
      {"measurement": "inhibition at 10 µM", "setting": "[19]", "result": 89, "unit": "%"},
      {"measurement": "inhibition at 10 µM", "setting": "[20]", "result": 17, "unit": "%"},
      {"measurement": "inhibition at 10 µM", "setting": "[21]", "result": 79, "unit": "%"},
      {"measurement": "inhibition at 10 µM", "setting": "[22]", "result": 94, "unit": "%"},
      {"measurement": "inhibition at 10 µM", "setting": "[23]", "result": 100, "unit": "%"},
      {"measurement": "inhibition at 10 µM", "setting": "[24]", "result": 82, "unit": "%"},
      {"measurement": "inhibition at 10 µM", "setting": "[25]", "result": 98, "unit": "%"},
      {"measurement": "inhibition at 10 µM", "setting": "[26]", "result": 94, "unit": "%"},
      {"measurement": "inhibition at 10 µM", "setting": "[27]", "result": 59, "unit": "%"},
      {"measurement": "inhibition at 10 µM", "setting": "[28]", "result": 41, "unit": "%"},
      {"measurement": "inhibition at 10 µM", "setting": "[29]", "result": 98, "unit": "%"},
      {"measurement": "inhibition at 10 µM", "setting": "[30]", "result": 97, "unit": "%"}
    ]}
  ]
}
